Measured values from PubChem BioAssay AID652041 (Broad Institute, 2013).

Tested on: P. falciparum HB3 in RBCs, SYBR Green DNA fluorescence
Assay: growth inhibition of P. falciparum HB3, dose response, HB3 strain, red blood cells, SYBR Green, cherry-picked (AID 652041);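 also: parasites exposed to compound for 72 hours before the DNA read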

Compound: COc1ccc(C(=O)On2c(-c3ccc(Br)cc3)nc3ccccc3c2=O)cc1
- AC35: 9.45 µM

Compound: O/N=C/c1cc(Br)ccc1OCc1ccccc1F
- AC35: 29.2 µM

Compound: Nc1cc2c3ccccc3ccc2c2ccccc12
- AC35: 0.249 µM

Compound: O=C(COc1ccc([N+](=O)[O-])cc1)Nc1nc(-c2ccccn2)cs1
- AC35: 6.38 µM

Compound: COc1ccc(Sc2nc(-c3ccccn3)ncc2OC)cc1
- AC35: 3.53 µM

Compound: COC(=O)C1=NN(C(=O)c2cccc(Br)c2)C(O)(c2ccc(Cl)cc2)C1 (stereo not drawn)
- AC35: 31 µM

Compound: C=C1C(=O)C23CCC4C(C)(C(=O)OC)CCCC4(C)C2CCC1(O)C3 (stereo not drawn)
- AC35: 1.72 µM

Compound: CC(=O)C1=C(c2cccc([N+](=O)[O-])c2)N(C(C)=O)n2c(C)nnc2S1
- AC35: 0.59 µM

Compound: CCc1ccc(S(=O)(=O)N(C(=O)c2ccncc2)c2ccc(OC(=O)c3ccncc3)cc2)cc1
- AC35: 41.7 µM

Compound: COC(=O)C1=C(C)NC(C)=C(C(=O)OCC(C)C)C1c1ccccc1[N+](=O)[O-] (stereo not drawn)
- AC35: 4.63 µM

Compound: Cc1ccc2oc(-c3ccccc3)c(C(=O)O)c(=O)c2c1
- AC35: 20.3 µM

Compound: Cn1ccc(=Nc2ccc(NC(=O)c3ccc(N=c4ccn(C)c5ccc([N+](=O)[O-])cc45)cc3)cc2)cc1
- AC35: < 0.0235 µM

Compound: CCCCc1ccc(-n2c(Cc3cccs3)n[nH]c2=S)cc1
- AC35: 29.2 µM

Compound: Cc1cc(/C=C2\SC(=S)N(C)C2=O)c(C)n1-c1ccc(O)cc1
- AC35: 9.39 µM

Compound: Cc1ccc(C)c(/C=C/C(=O)c2ccccc(=O)c2O)c1
- AC35: 8.27 µM

Compound: Cc1cc(-c2ccccc2)n(-c2cc(N/N=C/c3ccccc3O)ncn2)n1
- AC35: 3.85 µM

Compound: C=C(C)COc1ccc(-c2[nH]ncc2-c2ccccc2)c(O)c1
- AC35: 1.89 µM

Compound: C[n+]1c2cc(N)ccc2cc2ccc(N)cc21
- AC35: 0.0524 µM

Compound: O=C(c1ccc(-c2ccccc2)cc1)C1CCCN(C(=O)c2cncs2)C1 (stereo not drawn)
- AC35: 7.38 µM

Compound: O/N=C(\c1ccc(Cl)cc1)c1cc2ccccc2o1
- AC35: 16.4 µM

Compound: NC(=O)N=Nc1c2[nH]c3ccccc3nc-2c2ccccc12
- AC35: 21.1 µM

Compound: CCC(C)Sc1cccc(-c2nc3ccccn3c2NCc2ccccc2)c1 (stereo not drawn)
- AC35: 12.1 µM

Compound: CCCCNC(=S)N/N=C1\CCCCc2ccccc21
- AC35: 16.8 µM

Compound: Oc1cccc2ccc(Nc3ccccn3)nc12
- AC35: 0.321 µM

Compound: COc1cccc(/C=N/NC(=O)c2nc(-c3ccccc3)cc(-c3ccccc3)n2)c1O
- AC35: 7.16 µM

Compound: O=C(Nc1nnc(-c2cccs2)o1)c1cccc(Oc2ccccc2)c1
- AC35: 19.4 µM

Compound: CCN1C(=O)C(CC(=O)Nc2ccccc2Cl)N(NC(=O)c2cccc(F)c2)C1=S (stereo not drawn)
- AC35: 21.8 µM

Compound: O=c1c(CO)cc(CO)cc(CO)c1O
- AC35: 20.8 µM

Compound: C=C(C)COc1ccc(-c2[nH]ncc2-c2ccc(Br)cc2)c(O)c1
- AC35: 2.25 µM

Compound: Cn1nc(C(F)(F)F)c(C#N)c1N1CCN(c2ccc(F)cc2)CC1
- AC35: 18.7 µM

Compound: CN(Cc1ccc(Cl)s1)C(=O)CCl
- AC35: 5.21 µM

Compound: COc1ccc(-c2cc(C(=O)N3CCN(c4ccccc4F)CC3)c3ccccc3n2)c(OC)c1
- AC35: 6.74 µM

Compound: CCn1c2ccc(C)cc2c2nc3cc(C(=O)O)ccc3nc21
- AC35: 37.1 µM

Compound: COc1ccc(-c2oc3ccccc3c2C#Cc2cncn2C)cc1
- AC35: 0.87 µM

Compound: COc1ccc(O)c(C(=O)CC(=O)c2ccccc2C)c1
- AC35: 13.9 µM

Compound: CC/C(=N/NC(=O)c1ccccc1O)c1c(C)[nH]n(-c2ccccc2)c1=O
- AC35: 28.1 µM

Compound: Clc1ccccc1C(c1ccccc1)(c1ccccc1)n1ccnc1
- AC35: 0.645 µM

Compound: CCCCNc1c(-c2cccc(Sc3ccc(OC)cc3)c2)nc2ccccn12
- AC35: 8.77 µM

Compound: O=[N+]([O-])c1cccc(C=NNc2ccc3ccccc3n2)c1O
- AC35: 6.73 µM

Compound: COc1cc(/C=N/O)cc(Br)c1OCc1cccc(Cl)c1
- AC35: 28.1 µM

Compound: c1ccc(C(=NNc2nc3ccccc3s2)c2ccccn2)cc1
- AC35: 2.22 µM

Compound: COc1ccc2oc(=O)c(-c3csc(Nc4cccc(O)c4)n3)cc2c1
- AC35: 12 µM

Compound: O=S(=O)(c1ccc(Cl)cc1)N1CCC2(CC1)OCCN2S(=O)(=O)c1cccs1
- AC35: 20 µM

Compound: CCCCOC(=O)/C=C/c1ccc(OC(=O)OC)c(OC(=O)OC)c1
- AC35: 11 µM

Compound: O=C(NCc1ccncc1)c1ccccc1Nc1ccc(SC(F)F)cc1
- AC35: 21.5 µM

Compound: CNc1cc(CSC)nc(SCc2ccc(Cl)cc2Cl)n1
- AC35: 22.3 µM

Compound: CC(C)N1CCN(c2ccc(OCC3COC(Cn4cncn4)(c4ccc(Cl)cc4Cl)O3)cc2)CC1 (stereo not drawn)
- AC35: 4.53 µM

Compound: Cc1cc(C(=O)COC(=O)Cc2n[nH]c(=O)c3ccccc23)c(C)n1-c1cccc(C(F)(F)F)c1
- AC35: 4.22 µM

Compound: COc1cnc(-c2ccccn2)nc1N(C)c1ccccc1
- AC35: 3.46 µM

Compound: CCc1ccc(OCc2n[nH]c(=S)n2Cc2ccccc2)cc1
- AC35: 34.4 µM

Compound: O=C(OCC(=O)C12CC3CC(CC(C3)C1)C2)c1ccc(O)cc1
- AC35: 23.4 µM

Compound: S=C(NCc1ccco1)Nc1ccc(Oc2ccc(Cl)cc2)cc1
- AC35: 16.8 µM

Compound: O=C(CCCSc1ccccc1)Nc1nc(-c2ccccn2)cs1
- AC35: 8.91 µM

Compound: CCC(C)n1ncn(-c2ccc(N3CCN(c4ccc(OCC5COC(Cn6cncn6)(c6ccc(Cl)cc6Cl)O5)cc4)CC3)cc2)c1=O (stereo not drawn)
- AC35: 3.81 µM

Compound: O=C1Nc2c(Br)cccc2C1=O
- AC35: 30.5 µM

Compound: Cc1ccc(-c2c3c(nc4sc(C(N)=O)c(N)c24)CCCC3)o1
- AC35: 37.6 µM

Compound: CCCCC(=O)NC(c1ccco1)c1cc(Cl)c2cccnc2c1O (stereo not drawn)
- AC35: 1.62 µM

Compound: OCCN(CCO)c1cc2c3ccccc3ccc2c2ccccc12
- AC35: 1.21 µM

Compound: c1ccc(CSc2ccc(-c3ccccn3)nn2)nc1
- AC35: 23 µM

Compound: CCCCCCSc1ccc(-c2nc3ccccn3c2NCCCC)cc1
- AC35: 6.94 µM

Compound: COc1cccc(/C=N/Nc2ncnc3scc(-c4ccccc4)c23)c1O
- AC35: 1.7 µM

Compound: O=P(Nc1cccnc1)(Oc1ccccc1Cl)Oc1ccccc1Cl
- AC35: 37.1 µM

Compound: CN1CCN(C(=O)c2cc(COc3ccc(F)cc3Cl)on2)CC1c1ccccc1 (stereo not drawn)
- AC35: 33.5 µM

Compound: O=C(CC1CC2CCC1C2)Nc1nc(-c2ccccn2)cs1 (stereo not drawn)
- AC35: 3.99 µM

Compound: Cc1c(C2(O)CCCCC2)[nH]c2ccc(C(F)(F)F)cc12
- AC35: 17.3 µM

Compound: O=C(c1ccccc1)c1coc2c1C(=O)c1ccccc1C2=O
- AC35: 1.49 µM

Compound: Cc1cccc2sc(NNC(=O)c3ccc(S(=O)(=O)N4CCCC(C)C4)cc3)nc12 (stereo not drawn)
- AC35: 4.44 µM

Compound: O=C(Nc1nnc(-c2ccccc2)o1)c1ccc(Cl)cc1
- AC35: 10.7 µM

Compound: COc1ccc(O)c(C(=O)CC(=O)c2ccc(F)cc2)c1
- AC35: 16.1 µM

Compound: CCCS(=O)(=O)c1c(S(=O)(=O)CCC)c2c(C)cccn2c1C(=O)N/N=C/c1cc(O)cc(O)c1
- AC35: 10.5 µM

Compound: O=[N+]([O-])c1cc(C(F)(F)F)ccc1NCCc1c[nH]c2ccc(O)cc12
- AC35: 24.6 µM

Compound: CCCCCCC(Cl)(Cn1ccnc1)c1ccccc1 (stereo not drawn)
- AC35: 3.48 µM

Compound: O=C(NCC1CC1(Cl)Cl)Nc1ccc(Cl)c(Cl)c1 (stereo not drawn)
- AC35: 5.48 µM

Compound: CCCn1c(=O)c(C(=O)NCc2ccc(OC)c(OC)c2)c(O)c2ccccc21
- AC35: 21.8 µM

Compound: CC(=O)Oc1ccc(OC(C)=O)c(SCCCCCCl)c1
- AC35: 2.56 µM

Compound: C=CCN(CC=C)C(=S)NC(=O)c1ccc(C)c(Br)c1
- AC35: 9.72 µM

Compound: O=C(CSc1ccc(-c2ccccn2)nn1)c1ccccc1
- AC35: 28 µM

Compound: CCC(=O)NC(c1ccco1)c1cc(Cl)c2cccnc2c1O (stereo not drawn)
- AC35: 0.185 µM

Compound: C=CCc1ccc(O)c(-c2ccc(O)c(CC=C)c2)c1
- AC35: 14.7 µM

Compound: CC(=O)Nc1cccc(NC(=O)CSc2ccc(-c3ccccn3)nn2)c1
- AC35: 17 µM

Compound: Cc1ccc(Nc2cc(C)nn2-c2nc(C)cc(C)n2)cc1
- AC35: 2.75 µM

Compound: Nc1nc(-c2ccc(Oc3ccccc3)cc2)cs1
- AC35: 30.3 µM

Compound: COc1cc2cnc(-c3ccccc3)c(C(=O)c3ccc(F)cc3)c2cc1OC
- AC35: 21.6 µM

Compound: FC(F)(F)c1cccc(N2CCc3cn[nH]c32)c1
- AC35: 28.4 µM

Compound: Cc1ccc(C(=O)C(SC(C)(C)C)n2cncn2)cc1 (stereo not drawn)
- AC35: 38.7 µM

Compound: CC12CC3(C)CC(C)(C1)CC(NC(=O)N1CCCC1)(C2)C3
- AC35: 14.9 µM

Compound: CCCCCCCn1c(=O)c(C(=O)OC)c(N)c2ccccc21
- AC35: 4.22 µM

Compound: COc1ccc(N=N/C(=C\O)C(=O)c2cccs2)cc1
- AC35: 7.99 µM

Compound: O=C(COc1ccccc1F)Nc1nc(-c2ccccn2)cs1
- AC35: 12 µM

Compound: CC(C)(C)n1nc(Cc2cccc3ccccc23)c2c(N)ncnc21
- AC35: 23.6 µM

Compound: Cc1ccc(NC2(c3nnnn3-c3c(C)cccc3C)CCCCC2)cc1
- AC35: 18 µM

Compound: CCc1cc(SC#N)cc(C)c1NC(=O)CCl
- AC35: 7.66 µM

Compound: COC(=O)COC(=O)c1ccccc1NC(=O)c1ccccc1
- AC35: 25.8 µM

Compound: O=C(O)c1ccccc1NC(c1ccccc1)c1ccc2cccnc2c1O (stereo not drawn)
- AC35: 6.46 µM

Compound: Cc1cccc(Oc2nc(-c3ccccn3)nc3ccccc23)c1
- AC35: 6.06 µM

Compound: CCCCCCn1c(=O)c(C(=O)Nc2ncccc2C)c(O)c2ccccc21
- AC35: 4.29 µM

Compound: CCN(CC)C(=O)CSc1ncnc2sc(-c3ccccc3)cc12
- AC35: 36.6 µM

Compound: O=C1c2cccc(Cl)c2C(=O)c2c1cccc2N1CCCC1
- AC35: 20.9 µM

Compound: O/N=C(\c1ccc(Cl)cc1Cl)c1ncc(C(F)(F)F)cc1Cl
- AC35: 11.6 µM

Compound: NC(=Nc1nc(-c2ccccn2)cc2ccccc12)c1ccccn1
- AC35: 0.22 µM

Compound: CCOC(=O)c1ccc(NC(=S)N(Cc2cccnc2)Cc2ccco2)cc1
- AC35: 28.1 µM

Compound: CCC(Oc1ccc(Br)cc1Cl)C(=O)Nc1nnc(C2CC2)s1 (stereo not drawn)
- AC35: 33.3 µM

Compound: FC(F)(F)c1nc(SCc2ccc(Cl)cc2Cl)n[nH]1
- AC35: 40 µM

Compound: Cc1ccc(-n2nnnc2SCC(=O)N2CCc3ccccc3C2)c(C)c1
- AC35: 28.7 µM

Compound: CNc1ccc2oc(C[C@H]3O[C@@]4(CC[C@H]3C)O[C@H]([C@H](C)C(=O)c3ccc[nH]3)[C@H](C)C[C@H]4C)nc2c1C(=O)O
- AC35: 0.833 µM

Compound: COC(=O)c1cccc2c1-c1ccccc1/C2=N/O
- AC35: 16.5 µM

Compound: Cc1ccc(NS(=O)(=O)c2ccc(N3CCN(c4ccc(O)cc4)CC3)c([N+](=O)[O-])c2)c(C)c1
- AC35: 10.4 µM

Compound: CCC(NC(=S)NCc1ccc(F)cc1)c1ccc(C(C)C)cc1 (stereo not drawn)
- AC35: 11.3 µM

Compound: Cc1cccc(N2CCN(C(=O)C3COc4ccccc4O3)CC2)c1C (stereo not drawn)
- AC35: 38.9 µM

Compound: C=CCOC(Cn1ccnc1)c1ccc(Cl)cc1Cl (stereo not drawn)
- AC35: 7.38 µM

Compound: Cc1nc(-c2ccccn2)nc(N(C)c2ccccc2)c1Cl
- AC35: 6.1 µM

Compound: CCCC(C)Sc1nc2c([nH]1)c(=S)n(C)c(=O)n2C (stereo not drawn)
- AC35: 6.67 µM

Compound: O=[N+]([O-])c1ccc(Sc2cccc[n+]2[O-])c2nonc12
- AC35: 1.41 µM

Compound: CC1(C(=O)OCC(=O)Nc2ccc3ccccc3c2)CC1(Cl)Cl (stereo not drawn)
- AC35: 31.2 µM

Compound: O=C(N/N=C/c1ccc[nH]1)c1sc2ccccc2c1Cl
- AC35: 15.8 µM

Compound: CC(C)C(=O)NC(c1cccc([N+](=O)[O-])c1)c1ccc2cccnc2c1O (stereo not drawn)
- AC35: 0.826 µM

Compound: CC(/C=N/n1c(COc2ccccc2)n[nH]c1=S)=C\c1ccccc1
- AC35: 42.2 µM

Compound: Nc1cc2nc3ccccc3oc-2cc1=O
- AC35: 1.01 µM
